For experiment [1], the target named is T1, β5 subunit of the human constitutive proteasome (CPS) (Homo sapiens, UniProt P28074).
T1 construct: purchased Boston Biochem E-360
The experiment in a line: β5 inhibition assay, human constitutive proteasome (Suc-LLVY-AMC). To be noted: IC50 class, Suc-LLVY-AMC substrate. It is filed as biochemical. How it is done: The enzymatic activity of the β5 subunit of the human constitutive proteasome (CPS) is analyzed. In another assay, which differs from the assay of the human constitutive proteasome only in using the human immunoproteasome (IPS) the enzymatic activity of the β5 subunit of the human immunoproteasome (IPS) is analyzed. […] Inhibition is indicated as IC50 [nM] (“-”=not measured).

In experiment [2] the target is T2, β5 subunit of the human immunoproteasome (IPS) (Homo sapiens, UniProt P28062).
T2 construct: purchased Boston Biochem E-370
The experiment in a line: β5 inhibition assay, human immunoproteasome (Suc-LLVY-AMC). It counts as biochemical. To be noted: IC50 class, Suc-LLVY-AMC substrate. How it is done:
The enzymatic activity of the β5 subunit of the human constitutive proteasome (CPS) is analyzed. In another assay, which differs from the assay of the human constitutive proteasome only in using the human immunoproteasome (IPS) the enzymatic activity of the β5 subunit of the human immunoproteasome (IPS) is analyzed. Incubation of the enzyme with its fluorogenic substrate Suc-LLVY-AMC leads to liberation of the fluorescent dye AMC which can be measured with a suitable plate reader. • 100 mM HEPES pH7.5 • 50 mM NaCl • 0.02% SDS • 1 mM DTT (add fresh) • Victor X5 (Perkin Elmer) • Label: Umbeliferone (0.1s) • Excitation wavelength: 355 nm • Emission wavelength: 460 nm • 4 μl human cPS or IPS enzyme in assay buffer (final assay concentration 1 nM) or 4 μl assay buffer for negative controls • Compound addition via acoustic dispenser (Echo 520, Labcyte) • Mix and incubate @ RT for 10 min • 4 μl Suc-LLVY-AMC substrate (final assay concentration 22.6 μM) • Mix and incubate @ RT for 4 h (dark) • Stop reaction with 4 μl Bortezomib (final assay concentration 1 μM) • 15 min @ RT • Measure (Excitation 355 nm; Emission 460 nm)

The subject of a further experiment is HT-29 cells. The experiment in a line: CellTiter-Glo luminescent cell viability assay with HT-29 cells (72h incubation). It counts as cell-based, human. To be noted: Homo sapiens, HT-29, HT29 cells, read-out: CTG HT29. How it is done:
Cell Titer Glo Viability Assay with HT-29 Cells (72h Incubation) The CellTiter-Glo Luminescent Cell Viability Assay (Promega) is a homogeneous method of determining the number of viable cells in culture. It is based on quantification of ATP, indicating the presence of metabolically active cells. On day 1 400 HT-29 cells per well are seeded in white 384well plates (Greiner, #781080) in 25 μl cell culture medium (DMEM (PAN-Biotech #P04-03590)+10% FCS+glutamine). After incubation for 24 h at 37° C./5% CO2 compounds or DMSO are added at different concentrations by Echo Liquid Handling Technology. Cells are further incubated in humidified chambers for 72 h at 37° C. and 5% CO2. Cells treated with the compound vehicle DMSO are used as positive controls and cells treated with 10 μM Staurosporine serve as negative controls. At day 5-72h after compound addition—the CellTiter Glo Reagent is prepared according to the instructions of the kit (Promega Inc.): Reagent is mixed 1:1 with cell culture medium. Thereon, mixture and assay plates are equilibrated at room temperature for 20 min. Equal volumes of the reagent-medium-mixture is added to the volume of culture medium present in each well. The plates are mixed at […] for 2 minutes on an orbital shaker. The microplates are then incubated at room temperature for 10 minutes for stabilization of the luminescent signal. Following incubation the luminescence is recorded on a Victor microplate reader (Perkin Elmer) using a 200 ms integration time. The data is then analyzed with Excel using the XLFIT Plugin (dose response Fit 205) for IC50-determination. As quality control the Z′-factor is calculated from 16 positive and negative control values. […] Inhibition is indicated as IC50 [nM] (“-”=not measured).

In experiment [3] the test system is A549 (human lung carcinoma cell line). The experiment in a line: Glo assay of A549 cells (Table 3; ProteasomeGlo plating scheme). To be noted: Homo sapiens; A549 cells; read-out: PGLo A549. It is filed as cell-based. An excerpt:
Inhibition is indicated as IC50 [nM] (“-”=not measured). […] • Chymotrypsin-Like Cell-Based Proteasome-GloTM Assay (Promega; […]) • Cell culture 384-well plates (Greiner BioOne; 781080) • Dispensing cassette, MultiDrop Standard tube dispensing cassette (Thermo Scientific; 24072670) • DPBS (Pan BioTech; P04-36500) • Cell culture 384-well plates (Greiner BioOne; 781080) • CPD source plate: diamond-shape plate (Labcyte; LP-0200) • Intermediate plate (Labcyte; P-05525) [table] • a. Remove the plates with cells from the incubator. • b. Take all the plates including the compound plate, intermediate plate and Staurosporine plate to the ECHO. • c. Click on “Open” in the ECHO software and select the protocol “QLI5_25ul_30 uM-Grenier”. • d. Follow the on-screen prompts and instructions once you click “Start” to insert the compound plate, intermediate plate and destination plates. • e. Change the final number of destination plates on the program. • f. Follow the on-screen prompts and instructions once you click “Start” to load the Staurosporine and destination plates. • g. Once all the compounds, DMSO and Staurosporine have been transferred, place the destination plates in a wet tissue box. • h. Place the destination plates back into the incubator and incubate at 37° C., 5% CO2 for 105 minutes. • i. Re-seal all the compound+Stauro diamond and intermediate plates and store in the dark. Chymotrypsin like ProteasomeGlo Assay • 1. Thaw the components of the ProteasomeGlo assay at room temperature including the ProteasomeGlo Buffer, the lyophilized Luciferin Detection Reagent and the Suc-LLVY-Glo Substrate. • 2. Reconstitute the Luciferin Detection Reagent in the amber coloured bottle by adding 50 ml of the ProteasomeGlo Buffer. • 3. Vortex the Suc-LLVY-Glo Substrate briefly to reconstitute the Substrate well. • 4. Spin down the Substrate and add 250 μl of the Substrate to the reconstituted Luciferin Detection Reagent from step 2. • 5. Briefly vortex the amber bottle with the mix to prepare a homogenous solution. • 6. Place the mix prepared in step 5 to sit at room temperature for 60 minutes. • 7. After 60 minutes, pipette 25 μl of the mix from step 5 into all wells with the cells. • 8. Shake the plates for 2-5 minutes to ensure the complete mixing of the ProteasomeGlo reagent with the cells. • 9. Leave the plates in the dark for 10-15 minutes. • 10. Measure the luminescence read-out using the Viktor and the protocol “Luminescence_384Well_0.2 sec”. (Note: The Protoeasome-GloTM Reagent (combined Proteasome-GloTM Substrate, Proteasome-GloTM Buffer and Luciferin Detection Reagent) can be stored at 4° C. or -20° C. for 1 month with minimal loss of activity.)

Take `CC(=O)N[C@H]1CCCC(=O)NCCCCOc2ccc(C)c(c2)CNC(=O)[C@H](CCc2ccccc2)NC1=O` [Compound 269, N-((12S,15S)-1^4-methyl-8,13,16-trioxo-15-phenethyl-2-oxa-7,14,17-triaza-1(1,3)-benzenacyclooctadecaphane-12-yl)acetamide]: the IC50 in experiment [1] is 1000 to 5000 nM; in experiment [2] it was below 100 nM; with HT-29 cells, 1000 to 5000 nM; in experiment [3] it was 1000 to 5000 nM.
Take `Cc1ccc2cc1CNC(=O)[C@H](CCc1ccccc1)NC(=O)[C@@H](NC(=O)Cc1nc(-c3ccccc3)n[nH]1)CC(=O)N1CCCC(CCO2)C1` (stereo partly drawn) [Compound 328, N-((9S,12S)-5^4-methyl-8,11,14-trioxo-9-phenethyl-4-oxa-7,10-diaza-1(3,1)-piperidina-5(1,3)-benzenacyclotetradecaphane-12-yl)-2-(3-phenyl-1H-1,2,4-triazol-5-yl)acetamide]: the IC50 in experiment [1] is below 100 nM; in experiment [2], below 100 nM; with HT-29 cells it was below 100 nM; in experiment [3] it was 100 to 500 nM.
For `CC(=O)N[C@H]1CCC(=O)N2CCC2(C)COc2ccc(C)c(c2)CNC(=O)[C@H](CCc2ccccc2)NC1=O` (stereo partly drawn) [Compound 265, N-((8S,11S)-1^2,4^4-dimethyl-7,10,14-trioxo-8-phenethyl-3-oxa-6,9-diaza-1(2,1)-azetidina-4(1,3)-benzenacyclotetradecaphane-11-yl)acetamide], the values for the IC50 (in experiment [2]; in the experiment with HT-29 cells; in experiment [3]) were 100 to 500 nM, 100 to 500 nM and above 5000 nM, respectively.
With `Cc1ccc2cc1CNC(=O)[C@H](CCc1ccccc1)NC(=O)[C@@H](NC(=O)C(C)c1ccc3ncccc3c1)CC(=O)N1CCCC(CCO2)C1` (stereo partly drawn) [Compound 369, N-((9S,12S)-5^4-methyl-8,11,14-trioxo-9-phenethyl-4-oxa-7,10-diaza-1(3,1)-piperidina-5(1,3)-benzenacyclotetradecaphane-12-yl)-2-(quinolin-6-yl)propanamide], the IC50 (in experiment [1]; in experiment [2]; with HT-29 cells; in experiment [3]) was below 100 nM in each case.
As for `Cc1ccc2cc1CNC(=O)[C@H](CCc1ccccc1)NC(=O)[C@@H](NC(=O)OCc1ccccc1)CC(=O)N1CCC(CCO2)C1` (stereo partly drawn) [Compound 325, benzyl ((9S,12S)-5^4-methyl-8,11,14-trioxo-9-phenethyl-4-oxa-7,10-diaza-1(3,1)-pyrrolidina-5(1,3)-benzenacyclotetradecaphane-12-yl)carbamate], the IC50 (in experiment [1]; in experiment [2]; in the experiment with HT-29 cells; in experiment [3]) was below 100 nM in each case.
With `Cc1ccc2cc1CNC(=O)[C@H](CCc1ccccc1)NC(=O)[C@@H](NC(=O)Cc1ccccn1)CC(=O)N1CCCC(CCO2)C1` (stereo partly drawn) [Compound 331, N-((9S,12S)-5^4-methyl-8,11,14-trioxo-9-phenethyl-4-oxa-7,10-diaza-1(3,1)-piperidina-5(1,3)-benzenacyclotetradecaphane-12-yl)-2-(pyridin-2-yl)acetamide], the IC50 (in experiment [1]; in experiment [2]; in the experiment with HT-29 cells; in experiment [3]) was below 100 nM each time.
In the case of `CCOC(C(=O)N[C@H]1CC(=O)N2CCCC(CCOc3ccc(C)c(c3)CNC(=O)[C@H](CCc3ccccc3)NC1=O)C2)c1ccc(NC(C)=O)cc1` (stereo partly drawn) [Compound 324, 2-(4-acetamidophenyl)-2-ethoxy-N-((9S,12S)-5^4-methyl-8,11,14-trioxo-9-phenethyl-4-oxa-7,10-diaza-1(3,1)-piperidina-5(1,3)-benzenacyclotetradecaphane-12-yl)acetamide], the IC50 (in experiment [1]; in experiment [2]; in the experiment with HT-29 cells; in experiment [3]) was below 100 nM each time.
Regarding `Cc1ccc2cc1CNC(=O)[C@H](CCc1ccccc1)NC(=O)[C@@H](NC(=O)Cc1cn3ccsc3n1)CC(=O)N1CCCC(CCO2)C1` (stereo partly drawn) [Compound 330, 2-(imidazo[2,1-b]thiazol-6-yl)-N-((9S,12S)-5^4-methyl-8,11,14-trioxo-9-phenethyl-4-oxa-7,10-diaza-1(3,1)-piperidina-5(1,3)-benzenacyclotetradecaphane-12-yl)acetamide], the IC50 (in experiment [1]; in experiment [2]; with HT-29 cells; in experiment [3]) was below 100 nM each time.
Regarding `Cc1cc2cc(c1C)CNC(=O)[C@H](CCc1ccccc1)NC(=O)CCC(=O)N1CCCC(CCO2)C1` (stereo partly drawn) [Compound 95, (9S)-5^4,5^5-dimethyl-9-phenethyl-4-oxa-7,10-diaza-1(3,1)-piperidina-5(1,3)-benzenacyclotetradecaphane-8,11,14-trione], the IC50 in experiment [1] is below 100 nM; in experiment [2], below 100 nM; in the experiment with HT-29 cells, 500 to 1000 nM; in experiment [3], 1000 to 5000 nM.
Take `Cc1ccc2cc1CNC(=O)[C@H](CCc1ccccc1)NC(=O)[C@@H](NC(=O)C(C)(C)c1ccc(N)cc1)CC(=O)N1CCCC(CCO2)C1` (stereo partly drawn) [Compound 308, 2-(4-aminophenyl)-2-methyl-N-((9S,12S)-5^4-methyl-8,11,14-trioxo-9-phenethyl-4-oxa-7,10-diaza-1(3,1)-piperidina-5(1,3)-benzenacyclotetradecaphane-12-yl)propanamide]: the IC50 (in experiment [1]; in experiment [2]; with HT-29 cells) was below 100 nM each time.
With `Cc1ccc2cc1CNC(=O)[C@H](CCc1ccccc1)NC(=O)[C@@H](NC(=O)C1(c3ccc(N)cc3)CCCC1)CC(=O)N1CCCC(CCO2)C1` (stereo partly drawn) [Compound 305, 1-(4-aminophenyl)-N-((9S,12S)-5^4-methyl-8,11,14-trioxo-9-phenethyl-4-oxa-7,10-diaza-1(3,1)-piperidina-5(1,3)-benzenacyclotetradecaphane-12-yl)cyclopentane-1-carboxamide], the IC50 (in experiment [1]; in experiment [2]; in the experiment on HT-29 cells) was below 100 nM in each case.

The record behind these values is patent US20240415819A1, “MACROCYCLIC COMPOUNDS AS PROTEASOME SUBUNIT BETA TYPE-5 INHIBITORS” (Lead Discovery Center GmbH, priority 2021, published 2024).
